{"source": "paper PMC5218480", "about": "(PLoS ONE, 2017)", "system": "MV-4-11 cells", "assay": "Gene expression microarray analysis (Affymetrix PrimeView) and GSEA", "type": "cell-based, human", "parameters": "RFU PODN (11730768_x_at) / Fold change /veh PODN (11730768_x_at) / RFU LINC00158 (11744669_a_at) / Fold change /veh LINC00158 (11744669_a_at) / RFU DUSP10 (11751237_a_at) / Fold change /veh DUSP10 (11751237_a_at) / RFU ID3 (11757404_x_at) / Fold change /veh ID3 (11757404_x_at) / RFU PLEKHG5 (11737974_s_at) / Fold change /veh PLEKHG5 (11737974_s_at) / RFU LRRC4B (11730491_at) / Fold change /veh LRRC4B (11730491_at) / RFU GIMAP4 (11747438_a_at) / Fold change /veh GIMAP4 (11747438_a_at) / RFU KRT8 (11758183_x_at) / Fold change /veh KRT8 (11758183_x_at) / RFU CNN1 (11734310_a_at) / Fold change /veh CNN1 (11734310_a_at) / RFU VPS37D (11726825_at) / Fold change /veh VPS37D (11726825_at) / RFU C10orf10 (11716522_x_at) / Fold change /veh C10orf10 (11716522_x_at) / RFU KIR2DL2 /// KIR2DL4 /// KIR2DL5A /// KIR2DL5B /// KIR2DS1 /// KIR2DS2 /// KIR2DS3 /// KIR2DS4 /// KIR3DL3 /// KIR3DL3 /// KIR3DS1 (11738374_at) / Fold change /veh KIR2DL2 /// KIR2DL4 /// KIR2DL5A /// KIR2DL5B /// KIR2DS1 /// KIR2DS2 /// KIR2DS3 /// KIR2DS4 /// KIR3DL3 /// KIR3DL3 /// KIR3DS1 (11738374_at) / RFU C1QL1 (11718748_at) / Fold change /veh C1QL1 (11718748_at) / RFU TMPRSS4 (11747572_a_at) / Fold change /veh TMPRSS4 (11747572_a_at) / RFU HAMP (11756126_x_at) / Fold change /veh HAMP (11756126_x_at) / RFU RNFT2 (11725882_a_at) / Fold change /veh RNFT2 (11725882_a_at) / RFU NR4A2 (11747474_a_at) / Fold change /veh NR4A2 (11747474_a_at) / RFU ABCC12 (11746883_a_at) / Fold change /veh ABCC12 (11746883_a_at) / RFU TMEM136 (11760407_x_at) / Fold change /veh TMEM136 (11760407_x_at) / RFU CLDN22 /// WWC2 (11732394_at) / Fold change /veh CLDN22 /// WWC2 (11732394_at) / RFU HLA-DPB1 (11760878_x_at) / Fold change /veh HLA-DPB1 (11760878_x_at) / RFU SPINT1 (11716480_a_at) / Fold change /veh SPINT1 (11716480_a_at) / RFU GAP43 (11754022_s_at) / Fold change /veh GAP43 (11754022_s_at) / RFU A4GNT (11735810_at) / Fold change /veh A4GNT (11735810_at) / RFU PRB3 (11715151_x_at) / Fold change /veh PRB3 (11715151_x_at) / RFU TUBB4B (11761932_at) / Fold change /veh TUBB4B (11761932_at) / RFU CAPN14 (11732068_a_at) / Fold change /veh CAPN14 (11732068_a_at) / RFU TMCC2 (11721928_a_at) / Fold change /veh TMCC2 (11721928_a_at) / RFU IRGQ (11745062_a_at) / Fold change /veh IRGQ (11745062_a_at) / RFU FAM174B (11720279_a_at) / Fold change /veh FAM174B (11720279_a_at) / RFU TMPRSS4 (11748680_a_at) / Fold change /veh TMPRSS4 (11748680_a_at) / RFU FAM212B (11763350_a_at) / Fold change /veh FAM212B (11763350_a_at) / RFU PLEKHG5 (11743358_a_at) / Fold change /veh PLEKHG5 (11743358_a_at) / RFU ZSCAN30 (11745921_a_at) / Fold change /veh ZSCAN30 (11745921_a_at) / RFU CMKLR1 (11741424_a_at) / Fold change /veh CMKLR1 (11741424_a_at) / RFU LOC101060620 /// MAPK8IP1 (11723275_at) / Fold change /veh LOC101060620 /// MAPK8IP1 (11723275_at) / RFU SPTSSB (11747773_x_at) / Fold change /veh SPTSSB (11747773_x_at) / RFU PRSS12 (11739890_at) / Fold change /veh PRSS12 (11739890_at) / RFU BIN1 (11741810_x_at) / Fold change /veh BIN1 (11741810_x_at) / RFU WNT11 (11732464_a_at) / Fold change /veh WNT11 (11732464_a_at) / RFU C10orf10 (11716521_a_at) / Fold change /veh C10orf10 (11716521_a_at) / RFU C5orf56 (11738089_at) / Fold change /veh C5orf56 (11738089_at) / RFU CYB561 (11721691_x_at) / Fold change /veh CYB561 (11721691_x_at) / RFU ANKRD19P (11752326_a_at) / Fold change /veh ANKRD19P (11752326_a_at) / RFU OR2T12 /// OR2T33 /// OR2T8 (11738714_s_at) / Fold change /veh OR2T12 /// OR2T33 /// OR2T8 (11738714_s_at) / RFU VCAN (11748164_a_at) / Fold change /veh VCAN (11748164_a_at) / RFU JSRP1 (11732532_at) / Fold change /veh JSRP1 (11732532_at) / RFU KRTAP10-11 (11738290_x_at) / Fold change /veh KRTAP10-11 (11738290_x_at) / RFU MYO3A (11730013_a_at) / Fold change /veh MYO3A (11730013_a_at) / RFU EBF3 (11725865_a_at) / Fold change /veh EBF3 (11725865_a_at) / RFU CAMK2N1 (11719241_x_at) / Fold change /veh CAMK2N1 (11719241_x_at) / RFU C5orf56 (11738088_a_at) / Fold change /veh C5orf56 (11738088_a_at) / RFU OLFML3 (11715873_a_at) / Fold change /veh OLFML3 (11715873_a_at) / RFU LOC100653217 /// NTM (11731650_a_at) / Fold change /veh LOC100653217 /// NTM (11731650_a_at) / RFU MAPK11 (11762145_a_at) / Fold change /veh MAPK11 (11762145_a_at) / RFU FIZ1 (11724087_x_at) / Fold change /veh FIZ1 (11724087_x_at) / RFU OASL (11726364_x_at) / Fold change /veh OASL (11726364_x_at) / RFU SOX15 (11748057_x_at) / Fold change /veh SOX15 (11748057_x_at) / RFU CD79A (11719716_a_at) / Fold change /veh CD79A (11719716_a_at) / RFU HIST1H1D (11736915_at) / Fold change /veh HIST1H1D (11736915_at) / RFU CASKIN2 (11723855_a_at) / Fold change /veh CASKIN2 (11723855_a_at) / RFU LOC730098 (11760151_x_at) / Fold change /veh LOC730098 (11760151_x_at) / RFU OR4N2 (11742367_at) / Fold change /veh OR4N2 (11742367_at) / RFU PRRT2 (11749266_a_at) / Fold change /veh PRRT2 (11749266_a_at) / RFU SNX32 (11753110_a_at) / Fold change /veh SNX32 (11753110_a_at) / RFU CDHR5 (11726645_a_at) / Fold change /veh CDHR5 (11726645_a_at) / RFU RCAN1 (11760418_a_at) / Fold change /veh RCAN1 (11760418_a_at) / RFU FAM167A (11723789_a_at) / Fold change /veh FAM167A (11723789_a_at) / RFU FAM26E (11764081_at) / Fold change /veh FAM26E (11764081_at) / RFU ISYNA1 (11749810_s_at) / Fold change /veh ISYNA1 (11749810_s_at) / RFU ACY1 (11761880_at) / Fold change /veh ACY1 (11761880_at) / RFU 11764098_at / Fold change /veh 11764098_at / RFU SAMD14 (11745864_x_at) / Fold change /veh SAMD14 (11745864_x_at) / RFU NPB (11741838_a_at) / Fold change /veh NPB (11741838_a_at) / RFU TMPRSS6 (11731388_a_at) / Fold change /veh TMPRSS6 (11731388_a_at) / RFU KRTAP10-2 (11738614_at) / Fold change /veh KRTAP10-2 (11738614_at) / RFU ARHGAP8 /// PRR5-ARHGAP8 (11727945_x_at) / Fold change /veh ARHGAP8 /// PRR5-ARHGAP8 (11727945_x_at) / RFU KRTAP5-7 /// NADSYN1 (11734609_at) / Fold change /veh KRTAP5-7 /// NADSYN1 (11734609_at) / RFU RASL12 (11751679_a_at) / Fold change /veh RASL12 (11751679_a_at) / RFU CDKN2B (11736163_a_at) / Fold change /veh CDKN2B (11736163_a_at) / RFU PRF1 (11729649_at) / Fold change /veh PRF1 (11729649_at) / RFU, ZNF638 /// ZNF638-IT1 / Fold change vs veh, ZNF638 /// ZNF638-IT1 / RFU, PANK3 / Fold change vs veh, PANK3 / RFU, SH3YL1 / Fold change vs veh, SH3YL1 / RFU, ZEB2 / Fold change vs veh, ZEB2 / RFU, NRIP1 / Fold change vs veh, NRIP1 / RFU, PTTG1IP / Fold change vs veh, PTTG1IP / RFU, CAPN2 / Fold change vs veh, CAPN2 / RFU, MED14 / Fold change vs veh, MED14 / RFU, SNORA58 / Fold change vs veh, SNORA58 / RFU, C1orf63 / Fold change vs veh, C1orf63 / RFU, LRRFIP1 / Fold change vs veh, LRRFIP1 / RFU, NDUFAF7 / Fold change vs veh, NDUFAF7 / RFU, SLC12A2 / Fold change vs veh, SLC12A2 / RFU, IBTK / Fold change vs veh, IBTK / RFU, ESF1 / Fold change vs veh, ESF1 / Fold change vs veh, TMEM50B / RFU, TAOK1 / Fold change vs veh, TAOK1 / RFU, ACBD3 / Fold change vs veh, ACBD3 / RFU, TMA16 / Fold change vs veh, TMA16 / RFU, RWDD3 / Fold change vs veh, RWDD3 / RFU, BCAT1 / Fold change vs veh, BCAT1 / RFU, EDEM3 / Fold change vs veh, EDEM3 / RFU, TMEM33 / Fold change vs veh, TMEM33 / RFU, WDR75 / Fold change vs veh, WDR75 / RFU, AHCTF1 / Fold change vs veh, AHCTF1 / RFU, TFRC / Fold change vs veh, TFRC / RFU, ZDHHC17 / Fold change vs veh, ZDHHC17 / RFU, NOM1 / Fold change vs veh, NOM1 / RFU, ARL8B / Fold change vs veh, ARL8B / RFU, ZBTB11 / Fold change vs veh, ZBTB11 / RFU, TAMM41 / Fold change vs veh, TAMM41 / RFU, KIAA1704 /// LOC100996395 / Fold change vs veh, KIAA1704 /// LOC100996395 / RFU, ING1 / Fold change vs veh, ING1 / RFU, TRMT61B / Fold change vs veh, TRMT61B / RFU, FUBP3 / Fold change vs veh, FUBP3 / RFU, TP53 / Fold change vs veh, TP53 / RFU, TNKS2 / Fold change vs veh, TNKS2 / RFU, ZFP14 / Fold change vs veh, ZFP14 / RFU, ACTR2 / Fold change vs veh, ACTR2 / RFU, PPP3R1 / Fold change vs veh, PPP3R1 / RFU, PIK3R1 / Fold change vs veh, PIK3R1 / RFU, HNRNPA1 / Fold change vs veh, HNRNPA1 / RFU, RNF170 / Fold change vs veh, RNF170 / RFU, ZNF28 / Fold change vs veh, ZNF28 / RFU, RNGTT / Fold change vs veh, RNGTT / RFU, OGT / Fold change vs veh, OGT / RFU, BRD1 / Fold change vs veh, BRD1 / RFU, MARS / Fold change vs veh, MARS / RFU, ZNF655 / Fold change vs veh, ZNF655 / RFU, FAHD1 / Fold change vs veh, FAHD1 / RFU, BDP1 / Fold change vs veh, BDP1 / RFU, LRRCC1 / Fold change vs veh, LRRCC1 / RFU, ARID1A / Fold change vs veh, ARID1A / RFU, ZNF146 / Fold change vs veh, ZNF146 / RFU, ZNF330 / Fold change vs veh, ZNF330 / RFU, GPN3 / Fold change vs veh, GPN3 / RFU, C9orf123 / Fold change vs veh, C9orf123 / RFU, N4BP2L2 / Fold change vs veh, N4BP2L2 / RFU, ARFIP1 / Fold change vs veh, ARFIP1 / RFU, FAM179B / Fold change vs veh, FAM179B / RFU, BCL10 / Fold change vs veh, BCL10 / RFU, UHRF1BP1L / Fold change vs veh, UHRF1BP1L / RFU, BET1 / Fold change vs veh, BET1 / RFU, CNOT2 / Fold change vs veh, CNOT2 / RFU, ZNF268 / Fold change vs veh, ZNF268 / Fold change vs veh, ZNF507 / RFU, DGCR2 / Fold change vs veh, DGCR2 / RFU, WDSUB1 / Fold change vs veh, WDSUB1 / Fold change vs veh, HSP90B1 /// MIR3652 / RFU, ADSS / Fold change vs veh, ADSS / RFU, GK / Fold change vs veh, GK / RFU, ZNF148 / Fold change vs veh, ZNF148 / RFU, TAF9 / Fold change vs veh, TAF9 / RFU, SLC1A5 / Fold change vs veh, SLC1A5 / RFU, SLMO2 / Fold change vs veh, SLMO2 / RFU, ABCC4 / Fold change vs veh, ABCC4 / RFU, LOC101060439 /// RAP1B / Fold change vs veh, LOC101060439 /// RAP1B / RFU, RFX7 / Fold change vs veh, RFX7 / RFU, GTPBP10 / Fold change vs veh, GTPBP10 / RFU, CNEP1R1 / Fold change vs veh, CNEP1R1 / RFU, BIVM-ERCC5 /// ERCC5 / Fold change vs veh, BIVM-ERCC5 /// ERCC5 / RFU, ILF3 / Fold change vs veh, ILF3 / RFU 11762660_at / Fold change /veh 11762660_at / RFU VCAN (11757783_s_at) / Fold change /veh VCAN (11757783_s_at) / RFU DDX43 (11728927_at) / Fold change /veh DDX43 (11728927_at) / RFU KRT8 (11758188_x_at) / Fold change /veh KRT8 (11758188_x_at) / RFU NKD1 (11759106_at) / Fold change /veh NKD1 (11759106_at) / RFU SRD5A1 (11742802_a_at) / Fold change /veh SRD5A1 (11742802_a_at) / RFU TPSAB1 /// TPSB2 (11721975_s_at) / Fold change /veh TPSAB1 /// TPSB2 (11721975_s_at) / RFU GSTM3 (11746129_a_at) / Fold change /veh GSTM3 (11746129_a_at) / RFU IL23R (11737362_x_at) / Fold change /veh IL23R (11737362_x_at) / RFU TMEM51 (11727254_a_at) / Fold change /veh TMEM51 (11727254_a_at) / RFU PIWIL2 (11732686_x_at) / Fold change /veh PIWIL2 (11732686_x_at) / RFU ORM1 (11744905_x_at) / Fold change /veh ORM1 (11744905_x_at) / RFU CCDC152 (11743942_at) / Fold change /veh CCDC152 (11743942_at) / RFU ECM1 (11717891_a_at) / Fold change /veh ECM1 (11717891_a_at) / RFU IL23R (11748794_a_at) / Fold change /veh IL23R (11748794_a_at) / RFU TNFAIP8L3 (11732012_x_at) / Fold change /veh TNFAIP8L3 (11732012_x_at) / RFU MBOAT4 (11741988_at) / Fold change /veh MBOAT4 (11741988_at) / RFU 11764193_at / Fold change /veh 11764193_at / RFU TMEM53 (11763286_at) / Fold change /veh TMEM53 (11763286_at) / RFU MAGEB2 (11727129_at) / Fold change /veh MAGEB2 (11727129_at) / RFU TMEM200A (11744735_a_at) / Fold change /veh TMEM200A (11744735_a_at) / RFU CCDC152 (11751479_a_at) / Fold change /veh CCDC152 (11751479_a_at) / RFU FAM211A (11726209_a_at) / Fold change /veh FAM211A (11726209_a_at) / RFU RGS16 (11746705_a_at) / Fold change /veh RGS16 (11746705_a_at) / RFU VCAN (11755009_s_at) / Fold change /veh VCAN (11755009_s_at) / RFU RHOB (11743442_s_at) / Fold change /veh RHOB (11743442_s_at) / RFU RGS16 (11720943_a_at) / Fold change /veh RGS16 (11720943_a_at) / RFU RGS16 (11720944_at) / Fold change /veh RGS16 (11720944_at) / RFU, VPS4B / Fold change vs veh, VPS4B / RFU, CREB1 / Fold change vs veh, CREB1 / RFU, DNAJC13 / Fold change vs veh, DNAJC13 / RFU, GNAQ / Fold change vs veh, GNAQ / RFU, CDK5R1 / Fold change vs veh, CDK5R1 / RFU, ZRANB3 / Fold change vs veh, ZRANB3 / RFU, CUL4A / Fold change vs veh, CUL4A / RFU, CCNY / Fold change vs veh, CCNY / RFU, UFL1 / Fold change vs veh, UFL1 / RFU, COG3 / Fold change vs veh, COG3 / RFU, DIAPH2 / Fold change vs veh, DIAPH2 / RFU, SKA2 / Fold change vs veh, SKA2 / RFU, AFF3 / Fold change vs veh, AFF3 / RFU, LMF1 / Fold change vs veh, LMF1 / RFU, IPO11 / Fold change vs veh, IPO11 / RFU, DFFB / Fold change vs veh, DFFB / RFU, FOXP1 / Fold change vs veh, FOXP1 / RFU, CARD8 / Fold change vs veh, CARD8 / RFU, STRN3 / Fold change vs veh, STRN3 / RFU, ADK / Fold change vs veh, ADK / RFU, RASSF2 / Fold change vs veh, RASSF2 / RFU, WIPF1 / Fold change vs veh, WIPF1 / RFU, LARP1B / Fold change vs veh, LARP1B / RFU, RASA1 / Fold change vs veh, RASA1 / RFU, RB1 / Fold change vs veh, RB1 / RFU, PPFIA1 / Fold change vs veh, PPFIA1 / RFU, MAT2A / Fold change vs veh, MAT2A / RFU, CCT5 / Fold change vs veh, CCT5 / RFU, WDR92 / Fold change vs veh, WDR92 / RFU, CUX1 / Fold change vs veh, CUX1 / RFU, TTC7A / Fold change vs veh, TTC7A / RFU, TMEM135 / Fold change vs veh, TMEM135 / RFU, DEPTOR / Fold change vs veh, DEPTOR / RFU, CPM / Fold change vs veh, CPM / RFU, DNAJB6 / Fold change vs veh, DNAJB6 / RFU, CACNA2D3 / Fold change vs veh, CACNA2D3 / RFU, DTX4 / Fold change vs veh, DTX4 / RFU, TFCP2 / Fold change vs veh, TFCP2 / RFU, GMCL1 /// GMCL1P1 / Fold change vs veh, GMCL1 /// GMCL1P1 / RFU, AEBP2 / Fold change vs veh, AEBP2 / RFU, SNHG1 /// SNORD22 /// SNORD25 /// SNORD26 /// SNORD27 /// SNORD28 /// SNORD29 /// SNORD31 / Fold change vs veh, SNHG1 /// SNORD22 /// SNORD25 /// SNORD26 /// SNORD27 /// SNORD28 /// SNORD29 /// SNORD31 / Fold change (Aza/veh), C12orf56 (ProbeSet 11735607_a_at) / Fold change (ACY-1035/veh), C12orf56 (ProbeSet 11735607_a_at) / Fold change (Aza/veh), FGFR1OP (ProbeSet 11751329_s_at) / Fold change (ACY-1035/veh), FGFR1OP (ProbeSet 11751329_s_at) / Fold change (Aza/veh), VPS36 (ProbeSet 11739960_a_at) / Fold change (ACY-1035/veh), VPS36 (ProbeSet 11739960_a_at) / RFU SYPL1 (11715823_x_at) / Fold change /veh SYPL1 (11715823_x_at) / RFU IGFBP7 (11715501_s_at) / Fold change /veh IGFBP7 (11715501_s_at) / RFU REEP3 (11722064_at) / Fold change /veh REEP3 (11722064_at) / RFU IGLL1 (11728026_x_at) / Fold change /veh IGLL1 (11728026_x_at): dose or concentration left out as unconfirmed", "conditions": "MV-4-11 cells, 48 hours", "data": [{"compound": "Nc1ccc(-c2cccs2)cc1NC(=O)c1ccc2c(c1)cc(C1CC1)n2CCN1CCOCC1", "note": "[ACY-1035]", "values": [{"measurement": "Fold change /veh RNFT2 (11725882_a_at)", "result": 1.00}]}]}
